# Data reported in patent US12268690B2, “Treatments for mutations in acute myeloid leukemia” (OREGON HEALTH & SCIENCE UNIVERSITY, priority 2018, dated 2025).
# Test system: freshly isolated mononuclear cells from AML samples
# Assay: Ex vivo functional drug screen (MTS viability, AUC) on primary AML samples, compared by mutation or clinical group
# Assay type: cell-based, human
# Source text: This panel contained graded concentrations of a drugs with activity against two-thirds of the tyrosine kinome as well as other non-tyrosine kinase pathways, including MAPKs, PI3K/AKT/mTOR, AMPK, ATM, Aurora kinases, CAMKs, CDKs, GSK3a/b, IκK, PKA, PKC, PLK1, and RAF. In addition, the library contained small molecule inhibitors with activity against the BCL2 family, BRD4, Hedgehog, HSP90, NOTCH/gamma-secretase, proteasome, survivin, STAT3, and WNT/beta-catenin. Drug sensitivity patterns were analyzed with respect to clinical and genetic features of tumors. We compared the average area-under-the curve (AUC) values for each drug between the de novo and transformed samples via a series of single factor ANOVAs. […] In addition, we analyzed the concordance of drug sensitivity patterns with respect to predicted target gene, gene family, or pathway for each drug. […] To create a global view of overall sensitivity or resistance of each case, we generated a heatmap of binary sensitive/resistant calls for each sample to each drug.
# Correlation of drug sensitivity with mutational events was performed by assessing the range of sensitivity of cases with mutation of an individual gene (as well as co-occurring mutational events) versus cases with wild type sequence for that same gene. […] The difference in average drug sensitivity of mutant versus wild type cases for each drug/mutation pair was plotted on the horizontal axis of a volcano plot with a test for statistical significance of the comparison plotted on the vertical axis (corrected for multiple comparison false discovery rate^42; FIG. 4). […] To aid in discovery of potential mutational biomarkers of drug sensitivity, we plotted volcano plots that were specific to each individual drug (versus all possible mutational events) and for each individual gene (versus all possible drugs tested).
# Ex vivo drug screens were performed on freshly isolated mononuclear cells from AML samples as previously described^41.
# Ex vivo functional drug screens were performed on freshly isolated mononuclear cells from AML samples. […] Drug plates were created using inhibitors purchased from LC Laboratories and Selleck Chemicals and master stocks were reconstituted in DMSO and stored at −80° C. […] DMSO control wells and positive control wells containing a drug combination of Flavopiridol, Staurosporine and Velcade were placed on each plate, with the final concentration of DMSO ≤0.1% in all wells. Daughter plates were created using a V&P Scientific 384-well pin tool head operated by the Caliper Sciclone ALH 3000 and equipped with 0.457 mm diameter, 30 nanoliter, slotted stainless steel pins (cat num: FP1NS30). Daughter and destination plates were sealed with pealable thermal seals using a PlateLoc thermal sealer. Destination plates were stored at −20° C. for no more than three months and thawed immediately before use. Primary mononuclear cells were plated across single-agent inhibitor panels within 24 h of collection. […] After 3 d of culture at 37° C. in 5% CO2, MTS reagent (CellTiter96 AQueous One; Promega) was added, optical density was measured at 490 nm, and raw absorbance values were adjusted to a reference blank value and then used to determine cell viability (normalized to untreated control wells).
# A given sample was run on one or more panels and within each panel, the majority of drugs were run without within-panel replicates. […] An additional set of ‘curve-free’ AUCs was computed for sample-inhibitor pairs run on multiple panels.
# Based on the methodology used in our prior drug combination study^36, a probit regression was fit to all possible run groups using the model: (normalized_viability/100)˜1+log 10(concentration) Where for all groups there were N=7 dose-response measurements. The summary measures of curve fit were inspected and cutoffs were devised removing all runs with an AIC >12 and deviance >2.
compound,measurement,setting,value
Cc1ccc(NC(=O)c2ccc(CN3CCN(C)CC3)cc2)cc1Nc1nc(-c2cccnc2)cs1 [Masitinib],drug sensitivity mutant vs wild type (average difference in AUC; top left quadrant of volcano plot),FLT3_ITD:TET2,masitinb
same,drug sensitivity mutant vs wild type (average difference in AUC; top left quadrant of volcano plot),FLT3_ITD_IHD2,masitinib
same,drug sensitivity mutant vs wild type (average difference in AUC; top left quadrant of volcano plot),IDH2,Masitinib
same,drug sensitivity mutant vs wild type (average difference in AUC; top left quadrant of volcano plot),NPM1:SRSF2,Masitinb
same,drug sensitivity mutant vs wild type (average difference in AUC; top left quadrant of volcano plot),SMC1A,Masitinib
COc1cc(N2CCC(N3CCN(C)CC3)CC2)ccc1Nc1ncc(Cl)c(Nc2ccccc2S(=O)(=O)C(C)C)n1 [NVP-TAE684],drug sensitivity mutant vs wild type (average difference in AUC; top left quadrant of volcano plot),FLT3_ITD,NVP-TAE684
same,drug sensitivity mutant vs wild type (average difference in AUC; top left quadrant of volcano plot),FLT3_ITD:DNMT3A,NVP-TAE684
same,drug sensitivity mutant vs wild type (average difference in AUC; top left quadrant of volcano plot),FLT3_ITD:FLT3,nvp-TAE684
same,drug sensitivity mutant vs wild type (average difference in AUC; top left quadrant of volcano plot),FLT3_ITD:RUNX1,nvp-TAE684
same,drug sensitivity mutant vs wild type (average difference in AUC; top left quadrant of volcano plot),FLT3_ITD:TET2,nvp-tae684
same,drug sensitivity mutant vs wild type (average difference in AUC; top left quadrant of volcano plot),FLT3_ITD_IHD2,Nvp-TAE684
same,drug sensitivity mutant vs wild type (average difference in AUC; top left quadrant of volcano plot),IDH2,NVP-TAE684
same,drug sensitivity mutant vs wild type (average difference in AUC; top left quadrant of volcano plot),IDH2:FLT3,NVP-TAE684
same,drug sensitivity mutant vs wild type (average difference in AUC; top left quadrant of volcano plot),NPM1,NVP-TAE684
same,drug sensitivity mutant vs wild type (average difference in AUC; top left quadrant of volcano plot),NPM1:FLT3,NVP-TAE684
same,drug sensitivity mutant vs wild type (average difference in AUC; top left quadrant of volcano plot),NPM1:FLT3_ITD,nvp-tae684
same,drug sensitivity mutant vs wild type (average difference in AUC; top left quadrant of volcano plot),NPM1:FLT3_ITD:DNMT3A,NVP-TAE684
same,drug sensitivity mutant vs wild type (average difference in AUC; top left quadrant of volcano plot),NPM1:IDH2,NVP-TAE684
same,drug sensitivity mutant vs wild type (average difference in AUC; top left quadrant of volcano plot),NPM1:SRSF2,nvp-TAE684
same,drug sensitivity mutant vs wild type (average difference in AUC; top left quadrant of volcano plot),NPM1:SRSF2:IDH2,NVP-
Cc1[nH]c(/C=C2\C(=O)Nc3ccc(S(=O)(=O)Cc4c(Cl)cccc4Cl)cc32)c(C)c1C(=O)N1CCC[C@@H]1CN1CCCC1 [PHA-665752],drug sensitivity mutant vs wild type (average difference in AUC; top left quadrant of volcano plot),IDH2,PHA-665752
"CCCS(=O)(=O)Nc1ccc(F)c(C(=O)c2c[nH]c3ncc(Cl)cc23)c1F [PLX-4720, N-(3-(5-chloro-1H-pyrrolo[2,3-b]pyridine-3-carbonyl)-2,4-difluorophenyl)propane-1-sulfonamide]",drug sensitivity mutant vs wild type (average difference in AUC; top left quadrant of volcano plot),CBFB.MYH11,PLX-4720
NC(=O)c1cnc(N[C@@H]2CCCC[C@@H]2N)nc1Nc1cccc(-n2nccn2)c1 [PRT062607],drug sensitivity mutant vs wild type (average difference in AUC; top left quadrant of volcano plot),NPM1:DNMT3A,PRT062607
CCOc1cc2ncc(C#N)c(Nc3ccc(F)c(Cl)c3)c2cc1NC(=O)/C=C/CN(C)C [Pelitinib],drug sensitivity mutant vs wild type (average difference in AUC; top left quadrant of volcano plot),FLT3_ITD,pelitinib
same,drug sensitivity mutant vs wild type (average difference in AUC; top left quadrant of volcano plot),NPM1,Pelitinib
same,drug sensitivity mutant vs wild type (average difference in AUC; top left quadrant of volcano plot),NPM1:FLT3_ITD,pelitinib
CC(C)(C)c1cc(NC(=O)Nc2ccc(-c3cn4c(n3)sc3cc(OCCN5CCOCC5)ccc34)cc2)no1 [Quizartinib],drug sensitivity mutant vs wild type (average difference in AUC; top left quadrant of volcano plot),NPM1,quizartinib
same,drug sensitivity mutant vs wild type (average difference in AUC; top left quadrant of volcano plot),NPM1:DNMT3A,Quizartinib
same,drug sensitivity mutant vs wild type (average difference in AUC; top left quadrant of volcano plot),NPM1:IDH2,quizartinib
same,drug sensitivity mutant vs wild type (average difference in AUC; top left quadrant of volcano plot),NPM1:SRSF2,quizartinib
"Cn1c(Nc2ccc(C(F)(F)F)cc2)nc2cc(Oc3ccnc(-c4ncc(C(F)(F)F)[nH]4)c3)ccc21 [RAF265, 1-methyl-5-((2-(5-(trifluoromethyl)-1H-imidazol-2-yl)pyridin-4-yl)oxy)-N-(4-(trifluoromethyl)phenyl)-1H-benzo[d]imidazol-2-amine]",drug sensitivity mutant vs wild type (average difference in AUC; top left quadrant of volcano plot),BCOR,RAF265
same,drug sensitivity mutant vs wild type (average difference in AUC; top left quadrant of volcano plot),WT1,RAF265
